Data taken from ChEMBL document CHEMBL3608249, “Indolylpiperidine derivatives as potent and selective α1B adrenoceptor antagonists” (Bioorg Med Chem Lett, 2015).

Legend:
Rattus norvegicus [1] = species on record: Rattus norvegicus; assay: Selectivity ratio of Ki for alpha2 adrenoceptor in rat cerebral cortex to Ki for alpha1B adrenoceptor in rat liver membranes; assay type: cell membranes
[2] = Selectivity ratio of Ki for human recombinant alpha1D adrenoceptor to Ki for alpha1B adrenoceptor in rat liver membranes; assay type: cell membranes
[3] = biological target: T1, Adrenergic receptor alpha-2 (Rattus norvegicus, UniProt P22086+P19328+P22909); assay: Binding affinity to alpha2 adrenoceptor in rat cerebral cortex; assay type: tissue-based
T1 sequence (P22086 whole entry): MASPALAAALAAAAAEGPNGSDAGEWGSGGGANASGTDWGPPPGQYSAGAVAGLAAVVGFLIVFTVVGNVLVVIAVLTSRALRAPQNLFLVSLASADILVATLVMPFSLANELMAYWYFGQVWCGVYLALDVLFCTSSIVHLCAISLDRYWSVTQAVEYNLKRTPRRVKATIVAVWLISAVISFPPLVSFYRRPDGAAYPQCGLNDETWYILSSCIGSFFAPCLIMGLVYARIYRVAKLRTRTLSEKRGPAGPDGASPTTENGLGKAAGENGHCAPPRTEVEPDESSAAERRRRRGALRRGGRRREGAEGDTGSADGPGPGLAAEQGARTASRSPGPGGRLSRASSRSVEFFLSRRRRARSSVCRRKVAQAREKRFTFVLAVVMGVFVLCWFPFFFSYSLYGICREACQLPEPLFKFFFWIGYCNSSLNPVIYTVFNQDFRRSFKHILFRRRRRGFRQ
T1 sequence (P19328 whole entry): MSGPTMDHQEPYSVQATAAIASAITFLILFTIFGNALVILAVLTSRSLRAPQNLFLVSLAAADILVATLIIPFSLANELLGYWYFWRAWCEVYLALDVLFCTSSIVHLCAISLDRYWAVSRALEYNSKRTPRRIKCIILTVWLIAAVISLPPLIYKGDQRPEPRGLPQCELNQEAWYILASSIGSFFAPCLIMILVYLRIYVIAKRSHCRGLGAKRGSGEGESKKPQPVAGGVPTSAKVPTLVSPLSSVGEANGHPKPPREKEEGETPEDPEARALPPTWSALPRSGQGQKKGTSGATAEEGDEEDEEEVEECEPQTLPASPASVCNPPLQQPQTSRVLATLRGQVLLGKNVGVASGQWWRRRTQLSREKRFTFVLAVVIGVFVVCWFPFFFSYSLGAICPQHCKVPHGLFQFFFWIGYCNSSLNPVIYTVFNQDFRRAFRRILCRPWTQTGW
T1 sequence (P22909 whole entry): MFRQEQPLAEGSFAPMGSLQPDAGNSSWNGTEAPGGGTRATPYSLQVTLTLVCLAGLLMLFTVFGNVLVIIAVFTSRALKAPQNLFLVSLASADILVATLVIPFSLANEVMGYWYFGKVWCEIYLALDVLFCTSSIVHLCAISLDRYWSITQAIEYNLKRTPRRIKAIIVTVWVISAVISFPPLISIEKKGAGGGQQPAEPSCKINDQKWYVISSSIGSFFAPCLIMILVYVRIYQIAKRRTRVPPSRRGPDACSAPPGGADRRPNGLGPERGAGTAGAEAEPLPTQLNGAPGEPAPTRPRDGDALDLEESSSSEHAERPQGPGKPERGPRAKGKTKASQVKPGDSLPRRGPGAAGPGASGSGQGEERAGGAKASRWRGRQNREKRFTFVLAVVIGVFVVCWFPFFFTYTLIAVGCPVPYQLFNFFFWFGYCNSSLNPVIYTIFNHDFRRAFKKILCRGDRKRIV

Adrenergic receptor beta = Adrenergic receptor beta (Rattus norvegicus, UniProt P18090+P10608+P26255); assay: Binding affinity to beta adrenoceptor in rat brain; assay type: tissue-based
[4] = biological target: T2, Alpha-1B adrenergic receptor (Homo sapiens, UniProt P35368); assay: Antagonist activity at human alpha1B adrenoceptor assessed as inhibition of norepinephrine-induced increase of intracellular calcium level by cell based assay; assay type: functional
T2 sequence (P35368 whole entry): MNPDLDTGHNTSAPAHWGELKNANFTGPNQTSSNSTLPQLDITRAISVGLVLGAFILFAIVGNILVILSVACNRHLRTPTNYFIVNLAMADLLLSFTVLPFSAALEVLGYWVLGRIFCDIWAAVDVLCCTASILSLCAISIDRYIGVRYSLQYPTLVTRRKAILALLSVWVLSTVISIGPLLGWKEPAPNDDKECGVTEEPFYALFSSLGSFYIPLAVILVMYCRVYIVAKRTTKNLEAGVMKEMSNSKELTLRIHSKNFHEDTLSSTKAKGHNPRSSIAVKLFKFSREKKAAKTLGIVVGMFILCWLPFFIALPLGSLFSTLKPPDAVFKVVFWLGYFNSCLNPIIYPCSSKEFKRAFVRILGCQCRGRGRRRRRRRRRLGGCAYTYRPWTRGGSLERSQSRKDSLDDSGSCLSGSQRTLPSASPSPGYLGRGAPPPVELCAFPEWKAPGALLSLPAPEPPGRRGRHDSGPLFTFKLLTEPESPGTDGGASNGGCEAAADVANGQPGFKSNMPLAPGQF

[5] = biological target: T3, Alpha-1D adrenergic receptor (Homo sapiens, UniProt P25100); assay: Binding affinity to human recombinant alpha1D adrenoceptor
T3 sequence (P25100 whole entry): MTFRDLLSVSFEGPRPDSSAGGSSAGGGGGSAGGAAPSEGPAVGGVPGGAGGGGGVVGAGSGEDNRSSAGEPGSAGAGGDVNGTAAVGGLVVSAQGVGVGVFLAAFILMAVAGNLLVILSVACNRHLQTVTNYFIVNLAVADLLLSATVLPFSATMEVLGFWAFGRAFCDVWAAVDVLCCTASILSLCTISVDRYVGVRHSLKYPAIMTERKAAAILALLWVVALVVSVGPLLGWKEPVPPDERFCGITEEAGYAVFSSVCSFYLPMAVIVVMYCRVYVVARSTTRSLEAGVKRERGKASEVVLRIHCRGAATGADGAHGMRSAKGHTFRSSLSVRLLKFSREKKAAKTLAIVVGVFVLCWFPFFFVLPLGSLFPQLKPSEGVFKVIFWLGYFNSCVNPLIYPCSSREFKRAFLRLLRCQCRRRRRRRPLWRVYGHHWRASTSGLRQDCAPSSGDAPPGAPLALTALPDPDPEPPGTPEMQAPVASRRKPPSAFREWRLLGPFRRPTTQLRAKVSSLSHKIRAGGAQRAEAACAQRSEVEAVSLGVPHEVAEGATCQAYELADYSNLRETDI

Rattus norvegicus [6] = species on record: Rattus norvegicus; assay: Selectivity ratio of Ki for beta adrenoceptor in rat brain to Ki for alpha1B adrenoceptor in rat liver membranes; assay type: cell membranes
[7] = biological target: T4, Alpha-1B adrenergic receptor (Rattus norvegicus, UniProt P15823); assay: Displacement of [3H]prazosin from alpha1B adrenoceptor in rat liver membranes; assay type: cell membranes, Membrane
T4 sequence (P15823 whole entry): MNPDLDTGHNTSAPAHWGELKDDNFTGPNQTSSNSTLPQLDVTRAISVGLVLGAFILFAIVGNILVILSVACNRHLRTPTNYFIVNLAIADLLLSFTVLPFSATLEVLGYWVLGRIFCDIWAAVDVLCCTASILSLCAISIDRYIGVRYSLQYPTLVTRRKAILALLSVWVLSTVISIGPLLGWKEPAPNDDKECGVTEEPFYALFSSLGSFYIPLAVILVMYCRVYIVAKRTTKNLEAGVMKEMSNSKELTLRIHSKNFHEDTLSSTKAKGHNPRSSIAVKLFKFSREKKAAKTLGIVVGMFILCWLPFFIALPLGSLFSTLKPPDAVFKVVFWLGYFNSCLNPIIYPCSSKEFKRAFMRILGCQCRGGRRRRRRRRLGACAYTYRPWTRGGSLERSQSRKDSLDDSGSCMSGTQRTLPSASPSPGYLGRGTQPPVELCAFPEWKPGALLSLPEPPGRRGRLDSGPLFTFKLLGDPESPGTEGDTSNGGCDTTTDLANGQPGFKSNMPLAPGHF

[8] = biological target: T5, Alpha-1A adrenergic receptor (Rattus norvegicus, UniProt P43140); assay: Displacement of [3H]prazosin from alpha1A adrenoceptor in rat submaxillary gland membrane; assay type: cell membranes
T5 sequence (P43140 whole entry): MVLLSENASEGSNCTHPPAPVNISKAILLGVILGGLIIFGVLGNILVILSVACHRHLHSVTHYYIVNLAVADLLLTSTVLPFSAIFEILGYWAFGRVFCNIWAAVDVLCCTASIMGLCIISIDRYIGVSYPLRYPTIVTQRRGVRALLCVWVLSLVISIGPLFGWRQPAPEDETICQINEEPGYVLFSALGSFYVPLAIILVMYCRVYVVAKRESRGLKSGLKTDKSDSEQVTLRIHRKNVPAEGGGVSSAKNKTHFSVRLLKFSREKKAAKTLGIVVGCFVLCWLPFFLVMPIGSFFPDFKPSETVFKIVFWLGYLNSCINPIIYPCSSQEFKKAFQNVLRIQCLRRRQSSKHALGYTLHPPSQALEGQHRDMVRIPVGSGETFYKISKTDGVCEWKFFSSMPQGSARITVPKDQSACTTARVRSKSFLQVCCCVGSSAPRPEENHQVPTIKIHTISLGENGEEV

SMILES	Ki [7] [nM]	Ki [8] [nM]	further results
Fc1ccc2c(C3CCN(CCCN4CCc5ccccc5C4)CC3)c[nH]c2c1			Ratio Ki (Rattus norvegicus [1]): 40; Ratio Ki [2]: 40; Ki [3]: 90 nM; Ki (Adrenergic receptor beta): > 1000 nM; IC50 [4]: 560 nM; Ki [5]: 16 nM; Ratio Ki (Rattus norvegicus [6]): 40
CN(C)CCCN1CCC(c2c[nH]c3ccccc23)CC1	4.8	240	
c1ccc(CCCN2CCC(c3c[nH]c4ccccc34)CC2)cc1	13	16	
c1ccc2c(C3CCNCC3)c[nH]c2c1	440	3100	
c1ccc2c(C3CCN(CCCn4cccc4)CC3)c[nH]c2c1	11	86	
c1ccc2c(C3CCN(CCCC4CCCCC4)CC3)c[nH]c2c1	47	140	
